From patent US20240065988A1, “COMBINED USE OF KETAMINE AND RETIGABINE (EZOGABINE) FOR THE TREATMENT OF PSYCHIATRIC DISORDERS” (Yeda Research and Development Co. Ltd., priority 2021, published 2024)

Experiments:
[1] = tested on: KCNQ channel (KCNQ2/3, M-current); test: Ex vivo patch-clamp recording of IM current density in CA1 pyramidal neurons of acute vHipp slices; parameters: species or system mouse; details: ketamine 10 mg/kg BW i.p., 36 hours before slice preparation vs saline
[2] = tested on: treatment-resistant patients; details: single sub-anesthetic dose; cited from earlier work
[3] = tested on: Kcnq2 mRNA in glutamatergic neurons of the vHipp; test: qPCR mRNA levels in FACS-sorted glutamatergic neurons (Ai9+/tdTomato+) and remaining cells (Ai9-/tdTomato-) of Nex-Cre-Ai9 mice; type: in vivo, mouse; details: for mRNA levels of 8 top DEGs: ketamine vs saline
From the text: Conditional transgenic mice expressing tdTomato in glutamatergic neurons of the forebrain (Nex-Cre;Ai9) were generated by crossing homozygous Nex-Cre mice [described in S. Goebbels et al., Genesis (2006) 44: 611-621] with homozygous Ai9 mice [Gt(ROSA)26Sortm9(CAG-tdTomato)Hze] [described in L. Madisen et al., Nat Neurosci (2010) 13: 133-140].
In order to further investigate these findings, a conditional reporter mouse line (Nex-Cre-Ai9) was generated where most glutamatergic neurons of the forebrain, including the hippocampus, are fluorescently labeled by tdTomato (Ai9) except for neurons in the dentate gyrus where Neurod6, the promoter used to target glutamatergic neurons driving Cre expression, is not expressed (FIG. 12) [J. Hartmann et al., Mol Psychiatry (2017) 22: 466-475]. Following the same paradigm used in the original cohort, mice were group-housed and injected with (R,S)-ketamine (10 mg/kg BW) or a saline vehicle control. The vHipp of these mice was dissected […] later (i.e. 2 days). Single-cell suspensions were prepared and individual cells were sorted using fluorescence activated cell sorting (FACS) (FIG. 2A) into two separate pools of cells from each mouse. One pool contained glutamatergic neurons (Ai9+) and a second contained all remaining cell types of the vHipp (Ai9-) (FIG. 2A and FIGS. 13A-C). […] These two separate pools of cells were then used to validate the scRNA-seq findings in glutamatergic neurons at the population level using quantitative real-time polymerase chain reaction (qPCR).
Next, it was tested whether retigabine can produce similar synergistic effects in combination with traditional antidepressants.

For `CNC1(c2ccccc2Cl)CCCCC1=O` (racemic) [ketamine, (R,S)-ketamine], the IM current density [1] is listed as “significant increase in IM current density”, the “duration of antidepressant response” value [2] is listed as “up to 7 days” and the “onset of antidepressant response” value [2] is listed as “within hours”. The “Kcnq2 mRNA fold change (FC) after ketamine treatment” value ([3]; Ai9+ cells, ketamine 10 mg/kg BW vs saline, 36 hours, p<0.001) was 2.2, the “mRNA levels of 8 top DEGs” value ([3]; Ai9+ cells) was “significantly dysregulated” and the “mRNA levels of 8 top DEGs” value ([3]; Ai9- cells) was “No significant differences”. The “mRNA expression of Kcnq3 after ketamine treatment” value ([3]; any of the experiments: scRNA-seq, FACS-sorted cells, primary neurons (Table 2B, FIGS. 17A-C)) was “no significant differences”, the “Kcnq2 mRNA” value ([3]; glutamatergic neurons (tdTomato+) of the vHipp, two days after treatment, ketamine 10, escitalopram 10, retigabine 1 mg/kg/BW) was “significant increase of Kcnq2 mRNA” and the “total number of Ai9+ sorted cells, ketamine vs saline” value ([3]; ketamine 10 mg/kg BW, 36 hours) was “No significant differences”.
